Measured values taken from US20240293397A1 (H. Lundbeck A/S, priority 2010, published 2024).
Structures can show the parent of a compound that is named as a salt. Where two headings read alike, the source gives them in different places.

Experiments:
[1] = system: neurotransmitters serotonin, noradrenalin, dopamine, acetylcholine and histamine; settings: in vivo nonclinical; cited from earlier work
5-HT7 receptor = 5-HT7 receptor (Homo sapiens, UniProt P34969); settings: in vitro; cited from earlier work
5-HT transporter = 5-HT transporter (Homo sapiens, UniProt P31645); settings: in vitro; cited from earlier work
5-HT1B receptor = 5-HT1B receptor (Homo sapiens, UniProt P28222); settings: in vitro; cited from earlier work
[2] = six weeks, cited from earlier work
5-HT3 receptor = biological target: T1, 5-HT3 receptor (Homo sapiens, UniProt P46098); settings: in vitro; cited from earlier work
T1 sequence (P46098 24-478): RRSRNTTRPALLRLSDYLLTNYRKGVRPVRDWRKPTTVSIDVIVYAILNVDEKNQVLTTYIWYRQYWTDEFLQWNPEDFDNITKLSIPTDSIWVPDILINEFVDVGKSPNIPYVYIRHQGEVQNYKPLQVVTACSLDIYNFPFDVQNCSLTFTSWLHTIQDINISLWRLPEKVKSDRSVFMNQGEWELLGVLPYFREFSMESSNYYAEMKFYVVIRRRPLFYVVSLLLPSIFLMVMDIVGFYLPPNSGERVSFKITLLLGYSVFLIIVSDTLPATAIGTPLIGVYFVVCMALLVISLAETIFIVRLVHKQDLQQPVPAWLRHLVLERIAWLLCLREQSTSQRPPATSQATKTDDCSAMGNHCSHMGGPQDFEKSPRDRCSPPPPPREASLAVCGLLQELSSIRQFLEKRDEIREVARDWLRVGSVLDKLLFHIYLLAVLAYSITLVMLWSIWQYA

[3] = 324 patients, eight weeks; cited from earlier work
[4] = 566 patients, eight weeks; cited from earlier work
[5] = six week study; cited from earlier work
[6] = long-term study (26-32 weeks); cited from earlier work
[7] = OCD patients; end of 2.5 years study; cited from earlier work
[8] = Properties of polymorphic forms and salts (stability, solubility, hygroscopicity); type: physicochemical
Procedure: The polymorphic forms have different properties.
When a compound is administered as an oral drop formulation, a few drops of a concentrated, liquid formulation of said drug is measured out and added to a glass of water, juice or the like that the patient drinks. As an example, the antidepressant cipramil is provided as an oral drop formulation at 40 mg/ml.

[9] = Long-term effects on body weight, relapse prevention study in patients with generalised anxiety disorder; type: in vivo, human; settings: for Δ weight / ≥7% weight gain: GAD
Excerpt: The recruitment of patients took place over time, and since the end of the study was defined by the last patient having completed at least 24 weeks, some patients received up to 56 weeks double-blind placebo-controlled treatment.
(§1) The tables below show the mean difference in weight relative to the start of the open label period and to the time of randomisation and the fraction of patients experiencing equal to or more than […] during the study, i.e. potentially clinically significant increase.

[10] = Long-term effects on body weight, relapse prevention study in patients with major depressive disorder; type: in vivo, human; settings: for Δ weight / ≥7% weight gain: MDD
Excerpt: The recruitment of patients took place over time, and since the end of the study was defined by the last patient having completed the 24 weeks study, some patients received up to 64 weeks double-blind placebo-controlled treatment. This study is also reported in poster NR4-14 presented at the 164th Annual Meeting of the American Psychiatric Association, May 14-18 2011, Honolulu, Hawaii, USA.
as §1

[11] = long-term (up to two years) relapse prevention study; cited from earlier work
[12] = week 20, relative to start of open label period (t = 0), 227 patients
[13] = week 32, relative to start of open label period (t = 0), 220 patients
[14] = week 32, relative to time of randomisation (t = 20 weeks), 221 patients
[15] = week 44, relative to start of open label period (t = 0), 179 patients
[16] = week 44, relative to time of randomisation (t = 20 weeks), 180 patients
[17] = week 56, relative to start of open label period (t = 0), 84 patients
[18] = week 56, relative to time of randomisation (t = 20 weeks), 84 patients
[19] = week 68, relative to start of open label period (t = 0), 28 patients
[20] = week 68, relative to time of randomisation (t = 20 weeks), 28 patients
[21] = week 76, relative to start of open label period (t = 0), 4 patients
[22] = week 76, relative to time of randomisation (t = 20 weeks), 4 patients
[23] = week 12, relative to start of open label period (t = 0), 204 patients
[24] = week 24, relative to start of open label period (t = 0), 199 patients
[25] = week 24, relative to time of randomisation (t = 12 weeks), 199 patients
[26] = week 36, relative to start of open label period (t = 0), 157 patients
[27] = week 36, relative to time of randomisation (t = 12 weeks), 157 patients
[28] = week 48, relative to start of open label period (t = 0), 90 patients
[29] = week 48, relative to time of randomisation (t = 12 weeks), 90 patients
[30] = week 60, relative to start of open label period (t = 0), 52 patients
[31] = week 60, relative to time of randomisation (t = 12 weeks), 52 patients
[32] = week 72, relative to start of open label period (t = 0), 19 patients
[33] = week 72, relative to time of randomisation (t = 12 weeks), 19 patients
[34] = week 76, relative to start of open label period (t = 0), 3 patients
[35] = week 76, relative to time of randomisation (t = 12 weeks), 3 patients

Sequence of 5-HT1B receptor (P28222 whole entry): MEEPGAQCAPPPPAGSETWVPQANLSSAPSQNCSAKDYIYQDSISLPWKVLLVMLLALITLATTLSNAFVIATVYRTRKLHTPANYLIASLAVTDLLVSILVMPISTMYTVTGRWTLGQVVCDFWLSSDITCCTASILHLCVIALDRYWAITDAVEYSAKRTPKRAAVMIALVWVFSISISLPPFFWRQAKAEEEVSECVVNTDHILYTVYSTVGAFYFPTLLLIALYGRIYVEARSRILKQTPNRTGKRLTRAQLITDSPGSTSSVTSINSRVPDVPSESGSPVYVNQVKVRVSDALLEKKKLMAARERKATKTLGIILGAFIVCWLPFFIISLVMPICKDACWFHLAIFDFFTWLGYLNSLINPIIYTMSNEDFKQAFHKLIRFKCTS
Sequence of 5-HT7 receptor (P34969 whole entry): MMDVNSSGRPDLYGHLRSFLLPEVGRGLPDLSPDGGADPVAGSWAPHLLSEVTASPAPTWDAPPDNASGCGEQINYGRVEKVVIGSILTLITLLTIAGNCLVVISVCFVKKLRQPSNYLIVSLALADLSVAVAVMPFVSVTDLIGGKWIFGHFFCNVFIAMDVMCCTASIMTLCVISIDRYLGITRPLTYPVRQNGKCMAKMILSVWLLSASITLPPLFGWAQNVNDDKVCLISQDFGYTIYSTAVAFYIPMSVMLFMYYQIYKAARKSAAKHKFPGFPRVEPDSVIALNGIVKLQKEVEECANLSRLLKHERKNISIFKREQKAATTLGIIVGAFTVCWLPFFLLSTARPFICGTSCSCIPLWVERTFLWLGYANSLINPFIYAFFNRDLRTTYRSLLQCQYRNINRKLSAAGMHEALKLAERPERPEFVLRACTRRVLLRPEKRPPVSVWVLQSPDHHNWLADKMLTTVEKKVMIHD
Sequence of 5-HT transporter (P31645 whole entry, species assumed): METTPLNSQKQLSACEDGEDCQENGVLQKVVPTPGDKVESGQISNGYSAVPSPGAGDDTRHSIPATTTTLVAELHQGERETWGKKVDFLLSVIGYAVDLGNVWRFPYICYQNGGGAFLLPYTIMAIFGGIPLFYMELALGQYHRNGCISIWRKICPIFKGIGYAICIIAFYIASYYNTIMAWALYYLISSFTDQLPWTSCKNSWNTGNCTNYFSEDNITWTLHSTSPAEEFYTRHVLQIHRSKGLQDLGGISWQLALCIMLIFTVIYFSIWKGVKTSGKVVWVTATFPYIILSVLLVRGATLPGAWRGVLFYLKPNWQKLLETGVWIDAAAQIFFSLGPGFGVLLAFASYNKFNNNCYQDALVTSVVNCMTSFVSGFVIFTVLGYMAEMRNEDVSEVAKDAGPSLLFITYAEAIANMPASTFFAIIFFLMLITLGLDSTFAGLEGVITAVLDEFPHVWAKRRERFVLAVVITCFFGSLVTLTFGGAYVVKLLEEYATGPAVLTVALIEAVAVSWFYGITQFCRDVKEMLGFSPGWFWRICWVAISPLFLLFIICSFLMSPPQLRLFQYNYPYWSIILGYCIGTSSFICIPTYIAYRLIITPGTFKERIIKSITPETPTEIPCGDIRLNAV

## Cc1ccc(Sc2ccccc2N2CCNCC2)c(C)c1 [Compound I, 1-[2-(2,4-dimethyl-phenylsulfanyl)phenyl]piperazine]
[1]
  levels of serotonin, noradrenalin, dopamine, acetylcholine and histamine in specific areas of the brain: enhances levels
5-HT7 receptor
  activity at 5-HT7 receptor: antagonist
5-HT transporter
  activity at 5-HT transporter: inhibitor
5-HT1B receptor
  activity at 5-HT1B receptor: partial agonist
[2]; MDD patients
  changes in clinical laboratory results, vital signs, weight, or ECG parameters: no clinically relevant changes
[2]; approximately 100 patients in each arm, MDD
  treatment of depressive and anxious symptoms versus placebo: separates significantly from placebo
5-HT3 receptor
  activity at 5-HT3 receptor: antagonist

## Fc1ccc([C@@H]2CCNC[C@H]2COc2ccc3c(c2)OCO3)cc1 [paroxetine]
[3]
  effects on weight: no substantial effects on weight
[4]
  weight change: small weight loss
[5]
  weight gain: no weight gain was noted
[6]
  proportion of patients showing a PCS increase in body weight: 25.5%
[7]
  percentage of patients with PCS weight increase (7% or above compared to baseline): 14.3%

## Cc1ccc(Sc2ccccc2N2CCNCC2)c(C)c1 (racemic) [DL lactate salt of Compound I, DL-lactate salt of 1-[2-(2,4-dimethylphenylsulphanyl)-phenyl]piperazine]
[8]
  solubility: high solubility

## Cc1ccc(Sc2ccccc2N2CCNCC2)c(C)c1 [Compound I HBr, 1-[2-(2,4-dimethyl-phenylsulfanyl)phenyl]piperazine HBr]
[9]; combined data of tables 1-4 (MDD and GAD patients)
  weight gain versus placebo after long-term treatment: no meaningful difference
[9]; [12]
  Δ weight: 0.3 kg
  ≥7% weight gain: 2.6%
[9]; [13]
  Δ weight: 0.5 kg
  ≥7% weight gain: 3.6%
[9]; [14]
  Δ weight: 0.3 kg
  ≥7% weight gain: 0.9%
[9]; [15]
  Δ weight: 0.8 kg
  ≥7% weight gain: 8.4%
[9]; [16]
  Δ weight: 0.5 kg
  ≥7% weight gain: 4.4%
[9]; [17]
  Δ weight: 1.5 kg
  ≥7% weight gain: 17.9%
[9]; [18]
  Δ weight: 1.1 kg
  ≥7% weight gain: 10.7%
[9]; [19]
  Δ weight: 1.5 kg
  ≥7% weight gain: 10.7%
[9]; [20]
  Δ weight: 1.7 kg
  ≥7% weight gain: 10.7%
[9]; [21]
  Δ weight: 0.9 kg
  ≥7% weight gain: 0.0%
[9]; [22]
  Δ weight: 1.6 kg
  ≥7% weight gain: 0.0%
[10]; MDD patients, data of tables 1 and 2
  weight gain versus placebo after long-term treatment: no meaningful difference
[10]; [23]
  Δ weight: 0.0 kg
  ≥7% weight gain: 2.0%
[10]; [24]
  Δ weight: 0.3 kg
  ≥7% weight gain: 6.5%
[10]; [25]
  Δ weight: 0.4 kg
  ≥7% weight gain: 2.0%
[10]; [26]
  Δ weight: 0.6 kg
  ≥7% weight gain: 8.9%
[10]; [27]
  Δ weight: 0.6 kg
  ≥7% weight gain: 6.4%
[10]; [28]
  Δ weight: 0.7 kg
  ≥7% weight gain: 8.9%
[10]; [29]
  Δ weight: 0.9 kg
  ≥7% weight gain: 8.9%
[10]; [30]
  Δ weight: 0.4 kg
  ≥7% weight gain: 9.6%
[10]; [31]
  Δ weight: 0.8 kg
  ≥7% weight gain: 13.5%
[10]; [32]
  Δ weight: -0.2 kg
  ≥7% weight gain: 10.5%
[10]; [33]
  Δ weight: 0.3 kg
  ≥7% weight gain: 10.5%
[10]; [34]
  Δ weight: -2.3 kg
  ≥7% weight gain: 0.0%
[10]; [35]
  Δ weight: -0.8 kg
  ≥7% weight gain: 0.0%

## CN(C)CCCN1c2ccccc2CCc2ccc(Cl)cc21 [clomiptramine]
[7]
  percentage of patients with PCS weight increase (7% or above compared to baseline): 34.8%

## CNCCC(Oc1ccc(C(F)(F)F)cc1)c1ccccc1 (stereo not shown) [fluoxetine]
[6]
  proportion of patients showing a PCS increase in body weight: 6.6%
[7]
  percentage of patients with PCS weight increase (7% or above compared to baseline): 8.7%

## CN(C)CCC=C1c2ccccc2CCc2ccccc21 [amitriptyline]
[11]
  proportion of patients showing a PCS increase in body weight: 22%

## CN(C)CCCC1(c2ccc(F)cc2)OCc2cc(C#N)ccc21 (stereo not shown) [citalopram]
[7]
  percentage of patients with PCS weight increase (7% or above compared to baseline): 14.3%

## CN[C@H]1CC[C@@H](c2ccc(Cl)c(Cl)c2)c2ccccc21 [sertraline]
[6]
  proportion of patients showing a PCS increase in body weight: 4.2%
[7]
  percentage of patients with PCS weight increase (7% or above compared to baseline): 4.5%
